Data as given in US20160151389A1 (priority 2014, published 2016).

How the values were obtained:
JNK MAPK = experiment: Phosphorylation of JNK MAPK in LPS-activated BV-2 microglia cells (western blot); format: cell-based, mouse; settings: LPS-induced, vehicle group 5.5±0.3 fold
Protocol: (§1) BV-2 cells (i.e., a mouse microglial cell line) were cultured in DMEM at a concentration of 2×10^5 cells per mL of the DMEM at 37° C. with 5% CO2 for 16 hours, wherein the DMEM was supplemented with deactivated fetal bovine serum (FBS, 10%), penicillin G (100 units/ml)/streptomycin (100 μg/ml), L-glutamine (3.65 mM), 4-(2-hydroxyethyl)-1-piperazineethanesulfonic acid (HEPES, 18 mM) and NaHCO3 (23.57 mM). […] Then, BV-2 cells were activated by being treated with lipopolysaccharide (LPS, 150 ng/ml) for 24 hours. BV-2 cells were lysed by a cell lysis buffer and centrifuged.

ICH mouse model [1] = experiment: Brain water content in collagenase-induced ICH mouse model; format: in vivo; settings: ipsilateral hemisphere, 48 hours after ICH; 30 mg/kg orally at 30 minutes post-collagenase; ICH group 81.2±0.3%, NS group 78.7±0.1
Protocol: Male C57B2/6J mice (each weighs about 23 to 28 g) were anesthetized with chloral hydrate (400 mg/kg), and then a 1 mm burr hole was drilled 2 mm lateral to the midline and 0.3 mm anterior to the bregma of each mouse. Type VII-S collagenase (0.02 unit dissolved in 1 μl saline) was infused into the area of the caudate/putamen at a rate of 0.2 μl/min for 5 minutes. After an additional period of 5 minutes, the burr hole was occluded. The mice were allowed to recover with a controlled heating lamp and a controlled heating pad (37° C.) and an ICH mouse model was obtained, hereinafter referred to as “ICH group.” Additionally, a pseudo-animal that was handled with the same mode but only infused with an equal volume of normal saline (NS) was obtained, hereinafter referred to as “NS group.” […]
After wet weights of the brain tissues of ipsilateral hemisphere and contralateral hemisphere of the “NS group,” “ICH group” and “ICH+ergostatrien-3β-ol group”) mice were measured, the brain tissues of the ipsilateral hemisphere and contralateral hemisphere were dried at 100° C. for 24 hours to obtain the dry weights. The brain water content was calculated by the following formula: (wet weight−dry weight)/wet weight×100%.

MMP-9 = experiment: MMP-9-mediated gelatinolysis in astrocytes induced by LPS or thrombin (zymographic analysis); format: cell-based, rat
From the text: It has been known that the MMP-9-mediated gelatinolysis in astrocytes can be induced by LPS in a concentration dependent manner. The preparation and culture of astrocytes can be seen in “Preparation of separate astroglial and oligodendroglial cell cultures from rat cerebral tissue. J. Cell Biol. 85:890-902 (1980)” and “A potent antioxidant, lycopene, affords neuroprotection against microglia activation and focal cerebral ischemia in rats. In Vivo. 18:351-356 (2004)”, which are entirely incorporated hereinto by reference.
Astrocytes were respectively treated with vehicle (i.e., 0.2% ethanol) or ergostatrien-3β-ol (1, 5 and 10 μM) for 15 minutes, and then induced by LPS (500 ng/ml) or thrombin (10 units/ml) for 24 hours to induce the activation of MMP-9 in the astrocytes.

ICH mouse model [2] = experiment: Neurobehavioral test in collagenase-induced ICH mouse model; format: in vivo; settings: 48 hours after ICH; 30 mg/kg orally; minimum 3, maximum 18; ICH group 9.6±1.2
Protocol: Male C57B2/6J mice (each weighs about 23 to 28 g) were anesthetized with chloral hydrate (400 mg/kg), and then a 1 mm burr hole was drilled 2 mm lateral to the midline and 0.3 mm anterior to the bregma of each mouse. Type VII-S collagenase (0.02 unit dissolved in 1 μl saline) was infused into the area of the caudate/putamen at a rate of 0.2 μl/min for 5 minutes. After an additional period of 5 minutes, the burr hole was occluded. The mice were allowed to recover with a controlled heating lamp and a controlled heating pad (37° C.) and an ICH mouse model was obtained, hereinafter referred to as “ICH group.” Additionally, a pseudo-animal that was handled with the same mode but only infused with an equal volume of normal saline (NS) was obtained, hereinafter referred to as “NS group.”
At 30 minutes post-collagenase injection, ergostatrien-3β-ol suspended in a 0.5% (w/v) vehicle (e.g., carboxymethyl cellulose (CMC)) was orally administered to the mouse at a dosage of 30 mg/kg. […]
At 48 hours after ICH was induced by collagenase, three groups of mice mentioned in Example 4 (i.e., the “NS group,” “ICH group” and “ICH+ergostatrien-3β-ol group”) were analyzed by a neurobehavioral test, which includes six tests for spontaneous activity, symmetry in the movement of four limbs, forepaw outstretching, climbing, body proprioception, and response to vibrissae touch. […]

COX-2 = COX-2 expression in LPS-activated BV-2 microglia cells (western blot); format: cell-based, mouse; settings: for relative expression rate of COX-2, fold of that of the control group: LPS 150 ng/ml 24 hours, vehicle group 8.34±0.05-fold; for inhibition ratio of COX-2 expression: LPS 150 ng/ml
Protocol: as §1

SMILES: CC(C)[C@@H](C)/C=C/[C@@H](C)C1CCC2C3=CCC4C[C@@H](O)CC[C@]4(C)C3=CC[C@@]21C (stereo partly shown)
- phosphorylation level of JNK MAPK, fold of that of the control group (JNK MAPK; 0.5 μM pre-treatment): 5.5±0.9 fold
- phosphorylation level of JNK MAPK, fold of that of the control group (JNK MAPK; 1 μM pre-treatment): 3.9±0.2 fold
- phosphorylation level of JNK MAPK, fold of that of the control group (JNK MAPK; 5 μM pre-treatment): 3.5±0.6 fold
- phosphorylation level of JNK MAPK, fold of that of the control group (JNK MAPK; 10 μM pre-treatment): 2.4±0.3 fold
- brain water content (ICH mouse model [1]): 80.4±0.3%
- MMP-9-mediated gelatinolysis, fold of that of the control group (MMP-9; LPS 500 ng/ml 24 hours, first of three values, 1 μM per b67 (b68 lists 0.5, 1, 5 or 10 μM), vehicle group 3.3±0.4-fold): 2.9±0.3 fold
- MMP-9-mediated gelatinolysis, fold of that of the control group (MMP-9; LPS 500 ng/ml 24 hours, second of three values, 5 μM, vehicle group 3.3±0.4-fold): 2.5±0.3 fold
- MMP-9-mediated gelatinolysis, fold of that of the control group (MMP-9; LPS 500 ng/ml 24 hours, third of three values, 10 μM, vehicle group 3.3±0.4-fold): 2.1±0.3 fold
- MMP-9-mediated gelatinolysis, fold of that of the control group (MMP-9; thrombin 10 units/ml 24 hours, 5 μM, vehicle group 5.5±0.4-fold): 5.1±0.4 fold
- MMP-9-mediated gelatinolysis, fold of that of the control group (MMP-9; thrombin 10 units/ml 24 hours, 10 μM, vehicle group 5.5±0.4-fold): 3.3±0.8 fold
- neurobehavioral score (ICH mouse model [2]): 13.4±1.1
- relative expression rate of COX-2, fold of that of the control group (COX-2; 0.5 μM pre-treatment 15 minutes): 4.80±0.75 fold
- inhibition ratio of COX-2 expression (COX-2; 0.5 μM): 74%
- relative expression rate of COX-2, fold of that of the control group (COX-2; 1 μM pre-treatment 15 minutes): 3.91±0.64 fold
- inhibition ratio of COX-2 expression (COX-2; 1 μM): 94%
- relative expression rate of COX-2, fold of that of the control group (COX-2; 5 μM pre-treatment 15 minutes): 1.92±0.98 fold
- inhibition ratio of COX-2 expression (COX-2; 5 μM): 98%
- relative expression rate of COX-2, fold of that of the control group (COX-2; 10 μM pre-treatment 15 minutes): 2.14±0.86 fold
- inhibition ratio of COX-2 expression (COX-2; 10 μM): 106%
